Measurements from ChEMBL document CHEMBL5380826, “Conformationally Restricted σ1 Receptor Antagonists from (-)-Isopulegol” (J Med Chem, 2023).
Calls of active or inactive are those of the source. The rule behind the calls is not given here.

Experiments:
[1] = target: T1, Sigma intracellular receptor 2 (Rattus norvegicus) (UniProt Q5U3Y7); test: Displacement of [3H]di-o-tolylguanidine from rat liver membrane sigma 2 receptor at 1 uM measured after 120 mins by scintillation counting method relative to control; type: cell membranes
T1 sequence (whole entry): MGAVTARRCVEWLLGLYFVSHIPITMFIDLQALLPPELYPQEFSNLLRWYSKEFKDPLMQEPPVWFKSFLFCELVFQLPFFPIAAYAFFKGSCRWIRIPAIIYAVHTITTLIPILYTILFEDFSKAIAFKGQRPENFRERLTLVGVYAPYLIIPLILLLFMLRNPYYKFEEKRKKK

[2] = target: Glutamate receptor ionotropic, NMDA 2B (Mus musculus) (UniProt Q01097); test: Displacement of [3H]ifenprodil from GluN2B in mouse LTK cells at 1 uM measured after 120 mins by scintillation counting method relative to control; type: cell-based
Chain of Glutamate receptor ionotropic, NMDA 2B (Mus musculus) (Q01097 whole entry): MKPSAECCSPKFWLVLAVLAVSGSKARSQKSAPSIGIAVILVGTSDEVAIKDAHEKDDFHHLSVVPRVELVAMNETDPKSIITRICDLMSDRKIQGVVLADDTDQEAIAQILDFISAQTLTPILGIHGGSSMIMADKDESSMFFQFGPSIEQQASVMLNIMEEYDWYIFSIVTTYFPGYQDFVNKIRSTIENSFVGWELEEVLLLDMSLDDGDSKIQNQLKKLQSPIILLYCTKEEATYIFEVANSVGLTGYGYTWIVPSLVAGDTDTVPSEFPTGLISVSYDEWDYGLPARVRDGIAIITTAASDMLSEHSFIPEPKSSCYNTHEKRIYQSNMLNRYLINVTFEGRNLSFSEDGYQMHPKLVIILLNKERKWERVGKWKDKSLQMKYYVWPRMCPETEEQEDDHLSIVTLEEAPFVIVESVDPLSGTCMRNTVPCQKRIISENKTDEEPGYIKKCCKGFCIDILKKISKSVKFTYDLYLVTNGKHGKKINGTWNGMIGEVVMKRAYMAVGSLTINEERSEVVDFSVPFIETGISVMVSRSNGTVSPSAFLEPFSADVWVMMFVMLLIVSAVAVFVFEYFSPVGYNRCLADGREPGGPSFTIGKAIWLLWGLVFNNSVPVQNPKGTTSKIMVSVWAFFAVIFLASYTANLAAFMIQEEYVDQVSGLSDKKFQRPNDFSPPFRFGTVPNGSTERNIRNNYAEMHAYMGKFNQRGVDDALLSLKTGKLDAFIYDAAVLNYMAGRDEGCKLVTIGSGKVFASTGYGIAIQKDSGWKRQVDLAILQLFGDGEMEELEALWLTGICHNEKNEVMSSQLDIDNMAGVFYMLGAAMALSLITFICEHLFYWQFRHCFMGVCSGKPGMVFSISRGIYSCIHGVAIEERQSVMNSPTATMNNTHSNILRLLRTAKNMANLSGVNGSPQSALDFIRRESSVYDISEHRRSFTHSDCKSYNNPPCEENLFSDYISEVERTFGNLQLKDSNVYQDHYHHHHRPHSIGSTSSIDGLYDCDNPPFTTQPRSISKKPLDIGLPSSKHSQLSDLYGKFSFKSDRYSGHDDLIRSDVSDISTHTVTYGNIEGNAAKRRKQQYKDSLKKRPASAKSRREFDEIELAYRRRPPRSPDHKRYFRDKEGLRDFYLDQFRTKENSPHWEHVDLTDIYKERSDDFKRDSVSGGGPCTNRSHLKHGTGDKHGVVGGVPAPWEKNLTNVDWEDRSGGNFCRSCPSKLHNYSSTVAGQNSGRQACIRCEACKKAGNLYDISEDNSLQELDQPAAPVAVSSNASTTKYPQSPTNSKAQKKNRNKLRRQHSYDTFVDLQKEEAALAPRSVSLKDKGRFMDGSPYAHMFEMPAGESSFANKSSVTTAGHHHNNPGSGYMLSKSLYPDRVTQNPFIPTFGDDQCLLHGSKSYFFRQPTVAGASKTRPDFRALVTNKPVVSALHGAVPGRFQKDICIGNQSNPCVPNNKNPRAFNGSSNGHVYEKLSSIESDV

[3] = target: Sigma non-opioid intracellular receptor 1 (Cavia porcellus, UniProt Q60492); test: Displacement of [3H]-(+)-pentazocine from guinea pig brain membrane sigma 1 receptor assessed as inhibition constant measured after 120 mins by scintillation counting method; type: cell membranes
Chain of Sigma non-opioid intracellular receptor 1 (Q60492 whole entry): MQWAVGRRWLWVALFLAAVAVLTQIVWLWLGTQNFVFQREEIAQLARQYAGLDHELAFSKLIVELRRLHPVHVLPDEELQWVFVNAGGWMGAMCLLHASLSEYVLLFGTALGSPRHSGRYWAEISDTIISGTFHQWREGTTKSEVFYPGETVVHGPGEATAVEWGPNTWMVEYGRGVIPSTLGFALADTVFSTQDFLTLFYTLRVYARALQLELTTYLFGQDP

[4] = target: T2, Sigma intracellular receptor 2 (Rattus norvegicus, UniProt Q5U3Y7); test: Displacement of [3H]di-o-tolylguanidine from rat liver membrane sigma 2 receptor assessed as inhibition constant measured after 120 mins by scintillation counting method; type: cell membranes
T2 sequence (Q5U3Y7 whole entry): T1 sequence (whole entry)

[5] = target: Glutamate receptor ionotropic, NMDA 2B (Mus musculus, UniProt P35438+Q01097); test: Displacement of [3H]ifenprodil from GluN2B in mouse LTK cells assessed as inhibition constant measured after 120 mins by scintillation counting method; type: cell-based
Chain of Glutamate receptor ionotropic, NMDA 2B (Q01097 whole entry, one chain of several): as the sequence (Q01097 whole entry) above

[6] = Plasma protein binding in human by HPAC method; type: ADME, cell-free; settings: read-out: PPB (converted)
[7] = Lipophilicity, logD of the compound at pH 7.4 by LC-MS analysis; type: physicochemical; settings: buffer
[8] = Metabolic stability in C57BL/6 mouse liver microsomes assessed as compound remaining incubated for 90 mins in presence of NADPH by LC-MS analysis; type: ADME, Microsome; settings: read-out: Activity
[9] = test system: Mus musculus; test: Antiallodynic activity in sc dosed capsaicin-induced allodynia CD1 mouse model pretreated for 30 mins followed by capsaicin addition and measured after 15 mins; type: functional; settings: CD1, 0.75 h, time 45 min
[10] = test system: Mus musculus; test: Antiallodynic activity in capsaicin-induced mechanical allodynia CD1 mouse model assessed as increase in paw withdrawal latency at 4 to 32 mg/kg, sc pretreated for 30 mins followed by capsaicin addition and measured after 15 mins; type: functional, organism-based; settings: dose 4-32 mg/kg, time 45.0 min
[11] = test system: Mus musculus; test: Antiallodynic activity in capsaicin-induced mechanical allodynia CD1 mouse model assessed as increase in paw withdrawal latency at 16 mg/kg, sc pretreated with PRE-084 followed by compound addition; type: functional, organism-based
[12] = test system: Mus musculus; test: Antiallodynic activity in capsaicin-induced allodynia CD1 mouse model at 16 mg/kg, sc pretreated for 30 mins followed by capsaicin addition and measured after 15 mins relative to control; type: functional; settings: time 45 min, 0.75 h
[13] = test system: Mus musculus; test: Antiallodynic activity in ip dosed capsaicin-induced allodynia CD1 mouse model measured after 15 mins; type: functional; settings: CD1, 0.25 h
[14] = test system: Mus musculus; test: Antiallodynic activity in capsaicin-induced mechanical allodynia CD1 mouse model assessed as increase in paw withdrawal latency at 32 mg/kg, sc pretreated for 30 mins followed by capsaicin addition and measured after 15 mins; type: functional, organism-based; settings: time 45.0 min
[15] = test system: Mus musculus; test: Antiallodynic activity in capsaicin-induced allodynia CD1 mouse model at 16 mg/kg, ip measured after 15 mins relative to control; type: functional; settings: 0.25 h

| SMILES | Ki [3] [nM] | Ki [4] [nM] | Ki [5] [nM] | other results |
| --- | --- | --- | --- | --- |
| C[C@@H]1CC[C@@H]2[C@H](C1)OC1CN(CCCCc3ccccc3)C[C@]2(C)O1 (single isomer, unassigned) | 725 |  |  | inhibition [1]: 0%; inhibition [2]: 0% |
| C[C@@H]1CC[C@@H]([C@](C)(O)CN2CCC(Cc3ccccc3)CC2)[C@@H](O)C1 | 18 | 216 | 363 |  |
| C[C@@H]1CC[C@@H]2[C@@H](C1)O[C@H]1CN(CCCCc3ccccc3)C[C@]2(C)O1 | 2100 |  |  | inhibition [1]: 0%; inhibition [2]: 6%; fraction unbound [6]: < 0.02; logD [7]: 3.96 |
| C[C@@H]1CC[C@@H]([C@@](C)(O)CN2CCC(Cc3ccccc3)CC2)[C@H](O)C1 | 1.2 | 36 | 53 | remaining at 1.5 h [8]: 19%; ED50 [9]: ~8 mg/kg; Activity [10]: Active; Activity [11]: inactive; fraction unbound [6]: 0.122; Activity [12]: ~89%; logD [7]: 3.05 |
| C[C@@H]1CC[C@@H]2[C@H](C1)OCO[C@]2(C)CN1CCC(Cc2ccccc2)CC1 | 3.5 | 123 | 267 |  |
| C[C@@H]1CC[C@@H]([C@](C)(O)CNCCCCc2ccccc2)[C@H](O)C1 | 31 | 207 | 508 |  |
| C[C@@H]1CC[C@@H]2[C@@H](C1)OCO[C@]2(C)CNCCCCc1ccccc1 | 9.7 | 322 | 408 |  |
| Cc1cc(OCCN2CCOCC2)nn1-c1ccc2ccccc2c1 | > 1000 |  | > 58 | ED50 [13]: 26.3 mg/kg; Activity [14]: Active; Activity [15]: 43% |
| C[C@@H]1CC[C@@H]([C@@](C)(O)CNCCCCc2ccccc2)[C@@H](O)C1 | 7 | 424 | 1060 |  |
| C[C@@H]1CC[C@@H]2[C@@H](C1)O[C@@H]1CN(CCCCc3ccccc3)C[C@@]2(C)O1 | 805 | 1600 |  | inhibition [2]: 0% |
| COc1ccc(CC2CCN(C[C@](C)(O)[C@@H]3CC[C@@H](C)C[C@H]3O)CC2)cc1 | 2.9 | 75 | 45 |  |
| C[C@@H]1CC[C@@H]2[C@H](C1)OCO[C@@]2(C)CN1CCC(Cc2ccccc2)CC1 | 4.9 | 145 | 205 |  |
| C[C@@H]1CC[C@@H]2[C@H](C1)OCO[C@@]2(C)CNCCCCc1ccccc1 | 8.6 | 525 | 313 |  |
| C[C@@H]1CC[C@@H]([C@@](C)(O)CNCCCCc2ccccc2)[C@H](O)C1 | 8.2 | 850 | 1300 | fraction unbound [6]: 0.073; logD [7]: 1.84 |
| C[C@@H]1CC[C@@H]2[C@@H](C1)OCO[C@@]2(C)CN1CCC(Cc2ccccc2)CC1 | 5 | 119 | 36 | logD [7]: 3.45 |
| C[C@@H]1CC[C@@H]2[C@H](C1)OCO[C@]2(C)CNCCCCc1ccccc1 | 42 | 273 | 263 |  |
| C[C@@H]1CC[C@@H]([C@](C)(O)CN2CCC(Cc3ccccc3)CC2)[C@H](O)C1 | 2.8 | 194 | 92 |  |
| C[C@@H]1CC[C@@H]2[C@@H](C1)OC(C)(C)O[C@@]2(C)CN1CCC(Cc2ccccc2)CC1 | 16 | 649 | 1300 |  |
| C[C@@H]1CC[C@@H]([C@@](C)(O)CN2CCC(Cc3ccccc3)CC2)[C@@H](O)C1 | 1 | 172 | 125 |  |
| C[C@@H]1CC[C@@H]2[C@@H](C1)OCO[C@]2(C)CN1CCC(Cc2ccccc2)CC1 | 1.6 | 379 | 370 |  |
| C[C@@H]1CC[C@@H]([C@](C)(O)CNCCCCc2ccccc2)[C@@H](O)C1 | 43 | 265 | 511 |  |
| CN1CCN(CCc2ccc(Cl)c(Cl)c2)CC1 | 449 |  | 49 |  |
| C[C@@H]1CC[C@@H]2[C@@H](C1)OC(C)(C)O[C@]2(C)CN1CCC(Cc2ccccc2)CC1 | 114 | 880 | 423 |  |
| C[C@@H]1CC[C@@H]2[C@H](C1)O[C@@H]1CN(CCCCc3ccccc3)C[C@@]2(C)O1 | 54 | 779 | 890 |  |
| C[C@@H]1CC[C@@H]2[C@@H](C1)OCO[C@@]2(C)CNCCCCc1ccccc1 | 69 | 86 | 61 | fraction unbound [6]: 0.061; logD [7]: 2.67 |
